In the NIST ThermoML archive (doi:10.1021/je900210h):

Conditions: Fluid (supercritical or subcritical phases), Coaxial cylinder method

FCC(F)(F)F [1,1,1,2-tetrafluoroethane]
Conditions	thermal conductivity [W/m/K]
377.87 K, 4339 kPa	0.0617
377.87 K, 4470 kPa	0.0614
377.87 K, 4479 kPa	0.0606
377.89 K, 4330 kPa	0.0583
377.89 K, 4518 kPa	0.0587
377.89 K, 4531 kPa	0.0582
377.9 K, 4541 kPa	0.0575
377.9 K, 4551 kPa	0.057
377.9 K, 4561 kPa	0.0566
377.9 K, 4582 kPa	0.0563
377.91 K, 4321 kPa	0.0557
377.93 K, 4309 kPa	0.0521
377.93 K, 4800 kPa	0.0547
377.93 K, 4851 kPa	0.0547
377.95 K, 4301 kPa	0.0503
377.96 K, 6000 kPa	0.0569
377.97 K, 4302 kPa	0.0487
378.02 K, 4500 kPa	0.0601
378.05 K, 7003 kPa	0.0589
378.07 K, 180 kPa	0.02003
378.07 K, 6502 kPa	0.058
378.11 K, 5504 kPa	0.056
378.16 K, 8004 kPa	0.0605
378.18 K, 7450 kPa	0.0597
378.24 K, 10507 kPa	0.064
378.25 K, 4395 kPa	0.0667
378.25 K, 4400 kPa	0.0667
378.25 K, 9919 kPa	0.0632
378.25 K, 21005 kPa	0.0736
378.26 K, 4380 kPa	0.0657
378.26 K, 4390 kPa	0.0664
378.26 K, 4410 kPa	0.0667
378.26 K, 4420 kPa	0.0661
378.26 K, 4430 kPa	0.0655
378.26 K, 9506 kPa	0.0627
378.27 K, 4370 kPa	0.0645
378.27 K, 4440 kPa	0.0645
378.27 K, 4450 kPa	0.0639
378.27 K, 4460 kPa	0.0633
378.27 K, 9008 kPa	0.062
378.27 K, 18500 kPa	0.0716
378.28 K, 4360 kPa	0.0622
378.28 K, 4470 kPa	0.0625
378.28 K, 4480 kPa	0.0616
378.29 K, 4350 kPa	0.0597
378.29 K, 4490 kPa	0.0611
378.29 K, 4500 kPa	0.0608
378.29 K, 4510 kPa	0.0603
378.29 K, 4520 kPa	0.0601
378.29 K, 4530 kPa	0.0598
378.29 K, 8408 kPa	0.0612
378.29 K, 16500 kPa	0.0701
378.3 K, 4540 kPa	0.0595
378.3 K, 4550 kPa	0.0593
378.3 K, 4570 kPa	0.0588
378.3 K, 4590 kPa	0.0585
378.31 K, 4340 kPa	0.057
378.31 K, 4620 kPa	0.0581
378.31 K, 4626 kPa	0.0578
378.31 K, 4650 kPa	0.0573
378.31 K, 4688 kPa	0.0571
378.31 K, 4730 kPa	0.0569
378.31 K, 14505 kPa	0.0683
378.32 K, 4770 kPa	0.0567
378.33 K, 4330 kPa	0.0547
378.33 K, 13441 kPa	0.0674
378.34 K, 12420 kPa	0.0663
378.35 K, 4320 kPa	0.0524
378.36 K, 4310 kPa	0.0506
378.36 K, 11376 kPa	0.065
378.37 K, 10981 kPa	0.0646
378.38 K, 4300 kPa	0.0488
378.4 K, 4290 kPa	0.0472
378.41 K, 4280 kPa	0.0461
378.43 K, 4260 kPa	0.0438
378.45 K, 4240 kPa	0.0422
378.47 K, 4220 kPa	0.0408
378.49 K, 4200 kPa	0.0395
378.5 K, 4180 kPa	0.0385
378.53 K, 4140 kPa	0.0368
378.53 K, 4150 kPa	0.0371
378.54 K, 4130 kPa	0.0364
378.59 K, 4860 kPa	0.0565
378.59 K, 4900 kPa	0.0565
378.63 K, 440 kPa	0.02017
378.74 K, 180 kPa	0.02012
378.81 K, 4120 kPa	0.036
378.83 K, 4090 kPa	0.0351
378.85 K, 4050 kPa	0.0339
378.9 K, 330 kPa	0.02026
378.9 K, 3950 kPa	0.0317
